Here are results for seven molecules from PMC6199744, “Development of Chemical Proteomics for the Folateome and Analysis of the Kinetoplastid Folateome” (ACS Infectious Diseases, 2018).

What all share (type): binding
Assay [1] deals with T1, HeLa cell extract proteins (Homo sapiens, UniProt Q9NVI7).
T1 construct: endogenous in cells; host or cells: HeLa cell extract
T1 sequence (Q9NVI7 1-586): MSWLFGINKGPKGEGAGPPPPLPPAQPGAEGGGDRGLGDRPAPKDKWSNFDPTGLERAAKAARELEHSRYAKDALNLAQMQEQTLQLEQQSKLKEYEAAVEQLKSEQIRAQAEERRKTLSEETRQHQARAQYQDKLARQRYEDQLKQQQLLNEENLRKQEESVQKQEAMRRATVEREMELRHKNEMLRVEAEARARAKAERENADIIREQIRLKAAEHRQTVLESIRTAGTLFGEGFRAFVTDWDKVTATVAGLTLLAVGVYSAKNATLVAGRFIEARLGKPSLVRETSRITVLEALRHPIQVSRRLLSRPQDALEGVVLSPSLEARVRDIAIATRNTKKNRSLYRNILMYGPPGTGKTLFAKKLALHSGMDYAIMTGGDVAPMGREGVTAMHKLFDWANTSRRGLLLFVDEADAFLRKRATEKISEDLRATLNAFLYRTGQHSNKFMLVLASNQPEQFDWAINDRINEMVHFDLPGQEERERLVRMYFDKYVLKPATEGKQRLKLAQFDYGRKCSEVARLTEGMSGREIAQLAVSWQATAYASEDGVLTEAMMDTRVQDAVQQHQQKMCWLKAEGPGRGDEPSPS

Assay [2] addresses T2, HeLa cell extract proteins (Homo sapiens, UniProt P18206).
T2 construct: endogenous in cells; host or cells: HeLa cell extract
T2 sequence (P18206 1-1134): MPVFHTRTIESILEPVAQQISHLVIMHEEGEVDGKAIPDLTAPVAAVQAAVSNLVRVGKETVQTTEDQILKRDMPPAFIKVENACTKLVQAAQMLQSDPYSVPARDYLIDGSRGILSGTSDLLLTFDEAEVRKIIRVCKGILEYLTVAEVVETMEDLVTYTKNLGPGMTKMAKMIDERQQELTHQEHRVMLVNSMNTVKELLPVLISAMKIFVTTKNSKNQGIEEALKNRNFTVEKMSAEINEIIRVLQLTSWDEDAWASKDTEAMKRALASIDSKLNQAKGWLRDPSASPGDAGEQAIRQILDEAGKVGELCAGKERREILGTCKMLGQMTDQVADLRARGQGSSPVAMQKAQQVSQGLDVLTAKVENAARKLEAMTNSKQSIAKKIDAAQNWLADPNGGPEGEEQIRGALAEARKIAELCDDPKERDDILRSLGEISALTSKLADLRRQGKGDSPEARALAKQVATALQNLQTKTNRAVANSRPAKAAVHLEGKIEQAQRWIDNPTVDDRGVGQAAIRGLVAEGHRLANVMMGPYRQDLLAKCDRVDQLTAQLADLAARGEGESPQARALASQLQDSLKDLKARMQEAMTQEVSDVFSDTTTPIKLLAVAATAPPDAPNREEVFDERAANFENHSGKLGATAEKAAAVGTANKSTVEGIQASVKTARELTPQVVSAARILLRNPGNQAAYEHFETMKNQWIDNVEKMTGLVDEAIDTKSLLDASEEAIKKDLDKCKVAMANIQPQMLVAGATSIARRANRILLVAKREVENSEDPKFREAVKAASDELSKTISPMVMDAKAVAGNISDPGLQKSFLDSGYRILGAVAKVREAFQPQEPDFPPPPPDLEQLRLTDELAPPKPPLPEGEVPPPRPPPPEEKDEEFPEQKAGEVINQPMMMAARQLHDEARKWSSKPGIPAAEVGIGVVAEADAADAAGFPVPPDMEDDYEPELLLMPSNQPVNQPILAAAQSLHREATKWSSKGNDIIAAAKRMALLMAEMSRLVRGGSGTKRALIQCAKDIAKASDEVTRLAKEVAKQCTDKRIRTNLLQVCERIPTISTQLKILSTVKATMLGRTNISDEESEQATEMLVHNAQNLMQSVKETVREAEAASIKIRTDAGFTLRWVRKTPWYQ

The target of assay [3] is T3, HeLa cell extract proteins (Homo sapiens, UniProt P60228).
T3 construct: endogenous in cells; host or cells: HeLa cell extract

The target in assay [4] is T4, HeLa cell extract proteins (Homo sapiens, UniProt P53396).
T4 construct: endogenous in cells; host or cells: HeLa cell extract
T4 sequence (P53396 1-1101): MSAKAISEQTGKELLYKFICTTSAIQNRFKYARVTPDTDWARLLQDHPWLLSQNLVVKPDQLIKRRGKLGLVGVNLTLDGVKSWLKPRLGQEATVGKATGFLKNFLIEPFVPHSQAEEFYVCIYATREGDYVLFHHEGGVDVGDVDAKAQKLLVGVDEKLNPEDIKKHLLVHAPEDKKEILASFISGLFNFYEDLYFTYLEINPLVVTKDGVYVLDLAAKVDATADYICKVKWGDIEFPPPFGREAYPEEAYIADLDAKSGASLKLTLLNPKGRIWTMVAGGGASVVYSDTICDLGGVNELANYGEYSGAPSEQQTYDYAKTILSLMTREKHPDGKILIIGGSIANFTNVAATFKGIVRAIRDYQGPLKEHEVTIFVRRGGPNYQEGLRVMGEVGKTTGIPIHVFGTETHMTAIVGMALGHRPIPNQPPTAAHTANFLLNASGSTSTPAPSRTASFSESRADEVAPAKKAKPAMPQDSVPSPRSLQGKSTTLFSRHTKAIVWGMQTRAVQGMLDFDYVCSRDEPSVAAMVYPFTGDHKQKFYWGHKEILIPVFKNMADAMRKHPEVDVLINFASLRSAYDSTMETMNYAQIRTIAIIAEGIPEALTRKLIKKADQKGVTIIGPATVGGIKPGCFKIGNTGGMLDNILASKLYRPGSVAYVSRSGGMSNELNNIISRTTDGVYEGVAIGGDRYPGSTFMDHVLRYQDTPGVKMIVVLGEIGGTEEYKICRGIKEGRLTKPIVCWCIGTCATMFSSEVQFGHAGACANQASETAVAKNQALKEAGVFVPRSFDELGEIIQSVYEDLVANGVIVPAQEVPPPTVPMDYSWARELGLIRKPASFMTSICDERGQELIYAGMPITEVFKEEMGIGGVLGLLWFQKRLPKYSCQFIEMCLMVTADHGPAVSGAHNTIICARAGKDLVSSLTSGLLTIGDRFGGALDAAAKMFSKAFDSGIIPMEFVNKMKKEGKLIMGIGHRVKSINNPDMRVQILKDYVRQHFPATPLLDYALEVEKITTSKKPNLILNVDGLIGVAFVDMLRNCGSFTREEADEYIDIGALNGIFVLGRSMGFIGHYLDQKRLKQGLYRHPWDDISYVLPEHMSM

In assay [5] the target is T5, HeLa cell extract proteins (Homo sapiens, UniProt Q9Y6K9).
T5 construct: endogenous in cells; host or cells: HeLa cell extract

[6] abbreviates: HeLa, protein IKBKG (INHIBITOR OF KAPPAB KINASE GAMMA).

Read-outs that look alike come from different tables or passages of the source.

T5 sequence (Q9Y6K9 whole entry): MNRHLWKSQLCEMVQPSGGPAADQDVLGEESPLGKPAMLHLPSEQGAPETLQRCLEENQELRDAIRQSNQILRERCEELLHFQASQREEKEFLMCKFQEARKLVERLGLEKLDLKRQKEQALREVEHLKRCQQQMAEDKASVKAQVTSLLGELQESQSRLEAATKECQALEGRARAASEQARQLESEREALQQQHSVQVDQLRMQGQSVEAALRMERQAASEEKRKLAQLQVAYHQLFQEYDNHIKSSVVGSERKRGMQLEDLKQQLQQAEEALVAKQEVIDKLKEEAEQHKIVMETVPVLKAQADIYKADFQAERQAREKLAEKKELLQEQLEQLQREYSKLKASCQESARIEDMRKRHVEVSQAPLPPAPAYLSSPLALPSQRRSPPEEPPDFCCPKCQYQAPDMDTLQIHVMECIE
T3 sequence (P60228 whole entry): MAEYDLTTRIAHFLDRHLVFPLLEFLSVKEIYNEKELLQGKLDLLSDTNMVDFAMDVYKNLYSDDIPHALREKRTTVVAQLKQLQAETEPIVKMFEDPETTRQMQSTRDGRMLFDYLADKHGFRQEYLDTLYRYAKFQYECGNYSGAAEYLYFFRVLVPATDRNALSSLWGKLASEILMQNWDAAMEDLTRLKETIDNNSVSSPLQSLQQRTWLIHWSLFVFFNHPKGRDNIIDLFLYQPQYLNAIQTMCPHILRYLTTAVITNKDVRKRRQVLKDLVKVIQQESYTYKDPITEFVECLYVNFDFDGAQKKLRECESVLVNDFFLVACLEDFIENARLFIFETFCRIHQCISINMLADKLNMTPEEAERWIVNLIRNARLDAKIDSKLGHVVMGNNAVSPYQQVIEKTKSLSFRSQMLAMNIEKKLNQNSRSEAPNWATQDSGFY

For `Nc1nc2c(c(=O)[nH]1)N(C=O)C(CNc1ccc(C(=O)N[C@@H](CCC(=O)O)C(=O)O)cc1)CN2` (some centres unmarked) [LEU, leucovorin], the “fold changes relative to vehicle control” value worked out at 0.98 in assay [1] (HeLa, protein ATAD3A); 0.98 in assay [2] (protein VCL, HeLa); 1.15 in assay [3] (HeLa, protein EIF3E); 1.04 in assay [4] (HeLa, protein ACLY); 0.98 in assay [5] (setting [6]).

Consider `Nc1nc2[nH]cc(CCc3ccc(C(=O)N[C@@H](CCC(=O)O)C(=O)O)cc3)c2c(=O)[nH]1` [PTX, pemetrexed], for which the “fold changes relative to vehicle control” value stood at 1.12 in assay [1]; 1.06 in assay [2]; 1.04 in assay [3]; 1.1 in assay [4]; 1.02 in assay [5].

`CCCCCCOc1ccc(Cc2cnc(N)nc2N)cc1` [compound 1]: the “fold changes relative to vehicle control” value is given as 1.13 in assay [1] (HeLa, protein ATAD3A); 1.12 in assay [2] (protein VCL, HeLa); 1.18 in assay [3] (protein EIF3E, HeLa); 1.25 in assay [4] (protein ACLY, HeLa); 1.08 in assay [5] (captured protein IKBKG, HeLa).

Consider `CCCCCCOc1cccc(Cc2cnc(N)nc2N)c1` [compound 2], for which the “fold changes relative to vehicle control” value in assay [1] (HeLa, protein ATAD3A) is listed as 1.15; in assay [2] (protein VCL, HeLa), 1.8; in assay [3] (protein EIF3E, HeLa), 1.21; in assay [4] (protein ACLY, HeLa), 1.99; in assay [5] (captured protein IKBKG, HeLa) it was 1.1.

`Nc1nc2cccc(-c3ccccc3)c2n1Cc1ccc(Cl)c(Cl)c1` [compound 3]: the “fold changes relative to vehicle control” value in assay [1] (HeLa, protein ATAD3A) is 1.05; in assay [2] (protein VCL, HeLa), 0.99; in assay [3] (protein EIF3E, HeLa), 0.99; in assay [4] (protein ACLY, HeLa), 1.2; in assay [5] (captured protein IKBKG, HeLa), 0.9.

On to `NCCOCCOCC(=O)Nc1nc2ncc(CNc3ccc(C(=O)NC(CCC(=O)O)C(=O)O)cc3)nc2c(=O)[nH]1` (centres unmarked) [compound 6], for which the “fold changes relative to vehicle control” value in assay [1] (HeLa, protein ATAD3A) worked out at 1.17; in assay [2] (protein VCL, HeLa), 1.21; in assay [3] (HeLa, protein EIF3E), 1.11; in assay [4] (HeLa, protein ACLY), 1.19; in assay [5] (setting [6]) it was 0.96.

On to `NCCCNc1ccc(C(=O)NC(CCC(=O)O)C(=O)O)cc1` (centres unmarked) [compound 7], for which the “fold changes relative to vehicle control” value in assay [1] (HeLa, protein ATAD3A) is on record as 1.13; in assay [2] (protein VCL, HeLa), 0.96; in assay [3] (HeLa, protein EIF3E), 1.01; in assay [4] (HeLa, protein ACLY), 1.04; in assay [5] (setting [6]), 1.15.
